In ChEMBL document CHEMBL2021814, “Fragment-based and structure-guided discovery and optimization of Rho kinase inhibitors” (J Med Chem, 2012):

Columns and labels:
[1] = biological target: Rho-associated protein kinase 2 (Homo sapiens, UniProt O75116); experiment: Inhibition of ROCK2 after 1 hr by FRET-based enzyme-coupled assay
[2] = biological target: Rho-associated protein kinase 1 (Homo sapiens, UniProt Q13464); experiment: Inhibition of human His-puritin-tagged ROCK1 expressed in Sf9 cells after 1 hr by FRET-based enzyme-coupled assay
Rho-associated protein kinase 1, sequence (Q13464 whole entry): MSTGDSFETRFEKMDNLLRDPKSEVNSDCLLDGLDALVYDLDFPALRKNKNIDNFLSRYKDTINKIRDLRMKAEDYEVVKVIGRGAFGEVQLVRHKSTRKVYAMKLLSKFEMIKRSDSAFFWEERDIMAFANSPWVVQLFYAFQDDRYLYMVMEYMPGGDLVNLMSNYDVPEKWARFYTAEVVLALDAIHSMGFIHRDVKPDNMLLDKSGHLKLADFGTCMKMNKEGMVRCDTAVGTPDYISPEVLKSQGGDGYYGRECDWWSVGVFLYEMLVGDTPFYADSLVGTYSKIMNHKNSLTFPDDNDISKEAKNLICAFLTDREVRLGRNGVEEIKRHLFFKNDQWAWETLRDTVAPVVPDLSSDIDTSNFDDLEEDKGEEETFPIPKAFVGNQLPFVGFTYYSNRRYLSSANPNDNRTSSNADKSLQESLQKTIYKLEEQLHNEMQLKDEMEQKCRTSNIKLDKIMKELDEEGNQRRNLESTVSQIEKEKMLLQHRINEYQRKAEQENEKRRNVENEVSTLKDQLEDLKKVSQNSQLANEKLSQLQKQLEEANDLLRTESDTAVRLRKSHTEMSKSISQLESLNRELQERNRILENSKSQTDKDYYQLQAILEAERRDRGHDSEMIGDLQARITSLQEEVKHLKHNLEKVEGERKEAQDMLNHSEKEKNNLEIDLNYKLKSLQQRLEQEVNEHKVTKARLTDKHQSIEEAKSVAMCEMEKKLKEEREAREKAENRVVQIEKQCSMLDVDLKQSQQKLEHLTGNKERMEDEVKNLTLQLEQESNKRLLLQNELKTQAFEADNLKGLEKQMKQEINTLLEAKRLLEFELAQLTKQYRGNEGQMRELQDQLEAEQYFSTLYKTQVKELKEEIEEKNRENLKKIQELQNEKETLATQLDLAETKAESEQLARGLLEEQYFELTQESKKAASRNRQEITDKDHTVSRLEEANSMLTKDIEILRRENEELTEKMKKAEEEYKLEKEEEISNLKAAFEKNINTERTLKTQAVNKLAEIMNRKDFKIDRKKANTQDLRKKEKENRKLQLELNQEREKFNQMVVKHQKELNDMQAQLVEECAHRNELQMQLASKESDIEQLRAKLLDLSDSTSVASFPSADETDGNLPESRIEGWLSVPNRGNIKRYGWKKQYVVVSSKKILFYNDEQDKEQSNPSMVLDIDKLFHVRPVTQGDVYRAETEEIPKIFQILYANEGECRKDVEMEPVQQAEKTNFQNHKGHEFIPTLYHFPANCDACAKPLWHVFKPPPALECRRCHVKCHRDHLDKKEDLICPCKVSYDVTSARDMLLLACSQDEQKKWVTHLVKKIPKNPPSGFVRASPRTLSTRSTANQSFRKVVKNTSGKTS

Rho-associated protein kinase 2, sequence (O75116 whole entry): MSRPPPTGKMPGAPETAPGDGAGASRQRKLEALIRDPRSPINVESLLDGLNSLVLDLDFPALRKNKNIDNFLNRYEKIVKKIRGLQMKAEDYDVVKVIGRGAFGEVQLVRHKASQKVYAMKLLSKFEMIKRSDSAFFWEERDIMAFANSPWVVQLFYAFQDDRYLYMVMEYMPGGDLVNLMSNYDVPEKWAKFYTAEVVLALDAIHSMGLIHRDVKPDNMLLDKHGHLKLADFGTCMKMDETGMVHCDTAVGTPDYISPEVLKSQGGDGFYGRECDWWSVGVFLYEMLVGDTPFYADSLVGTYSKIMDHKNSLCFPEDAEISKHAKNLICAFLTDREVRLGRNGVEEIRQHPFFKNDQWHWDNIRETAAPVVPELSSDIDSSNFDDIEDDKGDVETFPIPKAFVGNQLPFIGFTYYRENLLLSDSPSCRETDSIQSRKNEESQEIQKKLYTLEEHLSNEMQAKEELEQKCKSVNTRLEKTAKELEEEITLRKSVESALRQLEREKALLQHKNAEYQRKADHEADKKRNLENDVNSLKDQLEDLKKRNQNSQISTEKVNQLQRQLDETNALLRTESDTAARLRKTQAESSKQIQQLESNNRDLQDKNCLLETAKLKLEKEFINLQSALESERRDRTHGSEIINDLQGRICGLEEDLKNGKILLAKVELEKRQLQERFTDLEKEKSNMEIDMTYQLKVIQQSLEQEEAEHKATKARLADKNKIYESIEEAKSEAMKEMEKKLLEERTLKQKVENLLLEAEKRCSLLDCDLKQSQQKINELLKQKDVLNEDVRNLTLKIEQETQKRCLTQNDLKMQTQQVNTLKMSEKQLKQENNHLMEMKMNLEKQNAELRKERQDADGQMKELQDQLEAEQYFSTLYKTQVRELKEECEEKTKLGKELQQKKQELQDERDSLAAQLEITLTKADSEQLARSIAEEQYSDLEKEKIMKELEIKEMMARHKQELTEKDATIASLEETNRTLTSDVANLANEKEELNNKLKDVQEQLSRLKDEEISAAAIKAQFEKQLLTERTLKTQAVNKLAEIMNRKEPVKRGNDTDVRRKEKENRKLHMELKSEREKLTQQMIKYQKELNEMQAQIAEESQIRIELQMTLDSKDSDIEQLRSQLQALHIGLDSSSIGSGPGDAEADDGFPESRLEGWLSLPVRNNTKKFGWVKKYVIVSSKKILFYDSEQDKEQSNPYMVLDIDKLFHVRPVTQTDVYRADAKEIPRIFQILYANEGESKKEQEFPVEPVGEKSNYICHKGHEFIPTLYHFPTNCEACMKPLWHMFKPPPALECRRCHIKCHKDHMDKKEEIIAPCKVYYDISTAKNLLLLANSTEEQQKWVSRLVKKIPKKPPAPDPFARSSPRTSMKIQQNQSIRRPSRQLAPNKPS

IC50 [1] | IC50 [2] | Structure (SMILES)
> 400 µM | > 400 µM | O=C(Nc1ccncc1)c1cnccc1-c1ccc(F)cc1
> 400 µM | > 400 µM | O=C(Nc1ccncc1)c1cncc(-c2ccc(F)cc2)c1
